Results taken from a melting point compilation (Tetko et al.).

melting point [°C] | Compound
179 to 181 | CCn1c(=O)n(CCC(=O)O)c2ccccc21
75 to 77 | CCN1CCNC1=O
68 to 70 | OCc1ccc(OCc2cccs2)cc1
219 to 221 | Cc1nc(O)c2cc(Br)ccc2n1
165 to 167 | O=C(O)CNC(=O)c1ccoc1
276 to 278 | O=C(O)c1cnc2c(Br)cccc2c1O
233 to 235 | CC1(C)C(=O)Nc2ccc(C(=O)CCl)cc21
167 to 169 | Cc1nn(C)c(C)c1CC(=O)N1CCC(C(=O)O)CC1
212 to 214 | O=C(O)c1c[nH]cc1-c1ccccc1
89 to 91 | COc1cc(C=O)ccc1[N+](=O)[O-]
140 to 142 | CC(C)(C)OC(=O)NC1C2CCC(C2)C1C(=O)O (centres undefined)
80 to 82 | O=S(=O)(O)c1ccc2c(c1)CCCO2
214 to 216 | Nc1c(F)cc(Br)cc1C(=O)O
59 to 61 | CNc1ccnc(C)c1
144 to 146 | CC(C)Cn1cnc(S(N)(=O)=O)c1
152 to 154 | O=C1CC(c2ccc(Cl)cc2)CC(=O)N1
149 to 151 | O=S1(=O)Cc2ccc(Cl)cc2N1
79 to 81 | CCN(Cc1ccccc1N)C(C)=O
169 to 171 | NNc1nc(-c2cccnc2)no1
126 to 128 | CS(=O)(=O)Cc1cc(F)ccc1N
90 to 92 | CC(C)(C)n1ncc(C#N)c1N
199 to 201 | CC(C)Oc1cccnc1C(=O)O
156 to 158 | O=C(O)C1CCCCN1c1ncccn1 (centres undefined)
150 to 152 | Nc1cccc(NC(=O)CO)c1

melting point [°C] | Compound
225 to 227 | O=C(O)c1cc(-c2cccc3ccccc23)nc2ccccc12
158 to 160 | O=C(O)c1nc(NCCc2ccccc2)ncc1Cl
159 to 161 | Nc1nc2ccc(Oc3ccccc3)cc2s1
199 to 201 | O=C1NC(=O)C(c2cccs2)(C2CC2)N1 (centres undefined)
100 to 102 | NC1(CO)CCc2ccccc21 (centres undefined)
138 to 140 | CN1CCC(=O)Nc2cc(Cl)ccc21
169 to 171 | CCN1N=C(C(F)(F)F)CC1=O
86 to 88 | NNC(=O)NCc1cccc(C(F)(F)F)c1
118 to 120 | O=C(O)CCc1ccc(-c2ccccc2)o1
182 to 184 | NC(=S)Nc1ccc(Cl)nc1
269 to 271 | Oc1ccc(C2=Nn3c(nnc3-c3ccc(Br)cc3)SC2)cc1O
145 to 147 | CN(C)CCNC(=O)Cc1ccc(N)cc1
250 to 252 | O=C(Nc1cc(Cl)ccc1C(=O)O)c1ccc(F)cc1
41 to 43 | O=[N+]([O-])c1cc(S(=O)(=O)Cl)c(Cl)cc1F
57 to 59 | CCOC(=O)c1cc(CC)sc1NC(=O)C(C)Cl (centres undefined)
75 to 77 | CN(c1ccc(C(=O)CCl)cc1)S(C)(=O)=O
142 to 144 | COc1cccc(-n2c(C)cc(C(=O)O)c2C)c1
118 to 120 | NCC(=O)Nc1ccccc1-n1cncn1
251 to 253 | O=C(O)c1cc(Br)c2c(c1)OCO2
171 to 173 | O=C(O)c1ncoc1-c1ccco1
103 to 105 | CC(C)(CO)Nc1ccc(Br)cn1
219 to 221 | Nc1nc(-c2ccc(Cl)cc2)n[nH]1
198 to 200 | Nc1ccnc2ccnn12
189 to 191 | COc1ccc(C(=O)O)c(Br)c1

melting point [°C] | Compound
115 to 117 | Cn1ccnc1C(O)(CCN)C(F)(F)F (centres undefined)
109 to 111 | OCc1ncn(-c2ccccc2)n1
136 to 138 | CC(O)c1nc2cc(Cl)ccc2n1C (centres undefined)
208 to 210 | O=C(O)c1ccc(=O)n(-c2ccccc2)n1
153 to 155 | COc1ccc(NS(=O)(=O)Cc2ccc(N)cc2)cc1
169 to 171 | Cc1cc(S(=O)(=O)Cl)cc(C(=O)O)c1F
99 to 101 | N#CCC(=O)c1cccc2c1OCCO2
108 to 110 | O=C(O)COc1ccccc1OCc1ccc(F)cc1
116 to 118 | Cc1nnnn1-c1ccc(Br)cc1
155 to 157 | Cc1ccc(O)c(C(=O)N2CCSCC2)c1
141 to 143 | Nc1nonc1-c1ccc(Br)cc1
173 to 175 | NNc1oc(-c2ccccc2)nc1C(N)=O
239 to 241 | Clc1cc2c(Cl)ncnc2[nH]1
88 to 90 | Cc1cccc(C2CC2C(=O)O)c1 (centres undefined)
52 to 54 | COc1ccc(C(C)C(=O)O)cc1 (centres undefined)
208 to 210 | c1cncc(-c2ncc[nH]2)c1
254 to 256 | O=c1oc2ccccc2nc1NO
255 to 257 | CCOc1cccc2[nH]c(C(=O)O)cc12
67 to 69 | O=C(C1CCNCC1)N1CCc2ccccc21
254 to 256 | Cc1cc(O)n2ncnc2c1
65 to 68 | CCCOc1ccc2ccccc2c1C=O
219 to 221 | CC(=O)c1ccc(-c2ccc(C(=O)O)o2)cc1
169 to 171 | Cc1ccc(C#N)c(N)n1
183 to 185 | O=C(O)c1sc2ccccc2c1CSc1ccccc1Cl

melting point [°C] | Compound
115 to 117 | O=C(O)C(Nc1ccccc1)c1ccccc1F (centres undefined)
341 to 343 | Cc1nc(=O)c2cnn(-c3ccc([N+](=O)[O-])cc3)c2[nH]1
283 to 285 | Cc1sc2nc(CC#N)[nH]c(=O)c2c1C
123 to 125 | CC(C)c1ccc(O)c(C(=O)O)c1
162 to 164 | Cc1cc(O)c(C(=O)O)cc1S(=O)(=O)Cl
254 to 256 | O=C(O)c1ccc(OCC2CC2)cc1
218 to 220 | Cc1ccc(-c2nc(C)c(C(=O)O)s2)c(C)c1
209 to 211 | COc1ccc(Br)c(-c2nnn[nH]2)c1
114 to 116 | COc1cc(C=O)ccc1OCc1ccc(Cl)cc1Cl
188 to 190 | FC(F)Sc1ccc(Nc2nnc(S)s2)cc1
105 to 107 | C=CCNC(=O)c1ccc(Cl)nc1
239 to 241 | CC(C)(C)OC(=O)N1CCc2[nH]c(=O)c(C#N)cc2C1
147 to 149 | O=C(O)c1occc1-c1ccc(F)cc1
127 to 129 | CCOC(=O)CN1C(=O)C(=O)c2ccccc21
152 to 154 | COC(=O)C(Cc1c[nH]cn1)NC(=O)CCc1ccccc1 (centres undefined)
75 to 77 | CCOC(=O)CN1CCN(S(=O)(=O)c2ccccc2)CC1
33 to 35 | N#Cc1cc2ccccc2o1
230 to 232 | Cc1nc(-c2cnn(C)c2)sc1C(=O)O
166 to 168 | Nc1ccc(S(N)(=O)=O)cc1F
161 to 163 | COC(=O)C=Cc1ccc([N+](=O)[O-])cc1
228 to 230 | CON(C)S(=O)(=O)c1cc(C(=O)O)ccc1Cl
114 to 116 | COc1ccc(-c2ccc(CN)s2)cc1
206 to 208 | Cc1nc(O)c2c(n1)CCCC2
35 to 39 | O=c1ccc2c([nH]1)CCC2

melting point [°C] | Compound
107 to 109 | CCN(C(=O)N1CCC(C(=O)O)CC1)C(C)C
66 to 68 | CCOc1ccc([N+](=O)[O-])cc1C=O
48 to 50 | O=C(Cc1ccccc1)C[N+](=O)[O-]
220 to 222 | O=C(CCl)Nc1cccc(C(=O)O)c1
157 to 159 | CCN(CC)C(=O)c1ccc(C(=O)O)cc1
270 to 272 | Cn1cc(Nc2ccc(=O)n(C)c2)ccc1=O
192 to 196 | O=C1OC(C(O)CO)C(O)=C1O (centres undefined)
115 to 117 | O=C(C=NO)Nc1cccc(C(F)(F)F)c1
239 to 241 | O=C(O)c1ccc2c(c1)C(=O)N(C1CCS(=O)(=O)C1)C2=O (centres undefined)
52 to 54 | Cc1ccc(N=C=O)c(C#N)c1
135 to 137 | O=C(O)C1CC(c2cc(F)ccc2F)=NO1 (centres undefined)
160 to 162 | COC(=O)c1cc(S(=O)(=O)N2CCCC2)ccc1O
278 to 280 | COc1ccc(-c2cncc(C(=O)O)c2)cc1
194 to 196 | NC(=NO)c1ccc(Oc2ccc(F)cc2)nc1
127 to 129 | COCCn1c(S)nc2ccccc21
86 to 88 | O=[N+]([O-])c1ccc(Br)c(S(=O)(=O)Cl)c1
97 to 99 | CC(C)n1cnnc1-c1ccccc1N
155 to 157 | CC(C)CNc1nnc(S)s1
142 to 144 | COc1ccc2c(c1)CCCC(=O)N2
70 to 72 | CC(C)(C)c1ccc(-c2ccc(C=O)o2)cc1
119 to 121 | NC(CC(=O)NC1CCCC1)=NO
167 to 169 | Fc1ccccc1-n1cnnc1S
134 to 136 | CS(=O)(=O)Nc1cccc(OCCN)c1
121 to 123 | CC(C)CC(=O)Nc1ccccc1C(=O)O

melting point [°C] | Compound
255 to 257 | O=C(O)c1c(C(F)(F)F)n[nH]c1C(F)(F)F
198 to 200 | O=C1CCC2(CC1)C(=O)Nc1ccccc12
196 to 198 | Cn1nc(C(=O)O)cc1C1CC1
103 to 105 | CC(C)C(NC(=O)c1ccco1)C(=O)O (centres undefined)
179 to 181 | Nc1cc(S(=O)(=O)N2CCOCC2)ccc1N1CCCC1
154 to 156 | O=C(O)c1ccc(SC(F)F)cc1
134 to 136 | COc1cc(C(C)=O)ccc1SCC(=O)O
151 to 153 | O=C(O)C1(c2ccc(OCc3ccccc3)cc2)CCOCC1
106 to 110 | Cc1nn(CC(C)C)c(C)c1CC(=O)O
140 to 144 | Cc1cccc(OC(C)C(=O)NN)c1C (centres undefined)
222 to 224 | NNC(=O)c1cc(Br)ccc1O
159 to 161 | COc1ccc(CC(=O)NO)cc1
80 to 82 | Cc1noc(C2(C)CCN(C(=O)OC(C)(C)C)CC2)n1
101 to 103 | N#Cc1ccc(OCCN)nc1
84 to 86 | CCN(CC)S(=O)(=O)c1cccc(N)c1
81 to 83 | CON(C)S(=O)(=O)c1ccc(Br)cc1
119 to 121 | Cc1cc(-c2nnco2)ccc1[N+](=O)[O-]
118 to 120 | O=Cc1cnc2ccccn12
121 to 123 | CCCN(CC)C(=O)c1ccc(C(=O)O)cc1
197 to 199 | O=Cc1csc(-c2ncccn2)n1

Compound | melting point [°C]
Cc1nc(C)c(CCl)s1 | 62 to 64
NC(=O)C(Cl)c1ccc(Br)cc1 (centres undefined) | 164 to 166
c1n[nH]cc1C1CCNCC1 | 149 to 151
O=C1CC(C(=O)O)CS1 (centres undefined) | 108 to 110
